Measured values taken from ChEMBL document CHEMBL4765432, “Design and synthesis of novel Flavone-based histone deacetylase inhibitors antagonizing activation of STAT3 in breast cancer” (Eur J Med Chem, 2020).
The source made the active and inactive calls. The rule behind the calls is not given here.

Experiments:
[1] = test system: 4T1; test: Induction of apoptosis in mouse 4T1 cells assessed as necrotic cells at 2.5 uM incubated for 72 hrs by annexinV-FITC and PI staining based flow cytometry analysis (reference value: 5.00 %); assay type: functional
[2] = test system: MDA-MB-231; test: Antitumor activity against human MDA-MB-231 cells xenografted in BALB/c mouse assessed as tumor growth inhibition at 25 mg/kg, ip administered for 34 days and measured on day 34; assay type: functional, organism-based; settings: time 34.0 day
[3] = test system: 4T1; test: Induction of cell cycle arrest in mouse 4T1 cells assessed as G0/G1 phase accumulation at 2 uM incubated for 24 hrs by PI staining based flow cytometry analysis (reference value: 42.06 %); assay type: functional
[4] = test system: MDA-MB-231; test: Induction of apoptosis in human MDA-MB-231 cells assessed as decrease in Bcl-2 expression incubated for 48 hrs by Western blot analysis; assay type: functional, cell-based; settings: dose 0.5-10 µM
[5] = test system: 4T1; test: Antitumor activity against mouse 4T1 cells xenografted in BALB/c mouse assessed as tumor growth inhibition at 20 mg/kg, ip administered for 22 days and measured on day 22; assay type: functional, organism-based; settings: time 22.0 day
[6] = MRT in Sprague-Dawley rat at 20 mg/kg, iv measured upto 12 hrs by LC-MS/MS analysis; assay type: ADME, organism-based; settings: in vivo
[7] = biological target: T1, Histone deacetylase 9 (Homo sapiens, UniProt Q9UKV0); test: (§1) Inhibition of recombinant human N-terminal GST-tagged HDAC-9 (548 to end residues) expressed in baculovirus infected in Sf9 cells using Boc-Lys (q-Ac)-AMC as substrate incubated for 10 mins followed by substrate addition and measured after 30 mins by fluorescence based assay
[8] = Toxicity in C57BL/6 mouse assessed death of organism at 50 mg/kg, po observed for 20 days; assay type: organism-based; settings: in vivo, 480 h, time 20 day
[9] = test system: MDA-MB-231; test: Cytotoxicity against human MDA-MB-231 cells assessed as reduction in cell viability incubated for 48 hrs by MTT assay; assay type: functional, cell-based; settings: MDA-MB-231, 48 h
[10] = test system: MDA-MB-231; test: Induction of apoptosis in human MDA-MB-231 cells assessed as viable cells at 5 uM incubated for 72 hrs by annexinV-FITC and PI staining based flow cytometry analysis (reference value: 90.3 %); assay type: functional; settings: read-out: Activity
[11] = test system: HEK-293T; test: Cytotoxicity against human HEK293T cells assessed as reduction in cell viability incubated for 48 hrs by MTT assay; assay type: ADME, cell-based
[12] = Oral bioavailability in Sprague-Dawley rat at 20 mg/kg measured upto 12 hrs by LC-MS/MS analysis; assay type: ADME, organism-based; settings: in vivo
[13] = test system: 4T1; test: Induction of cell cycle arrest in mouse 4T1 cells assessed as G0/G1 phase accumulation at 1 uM incubated for 24 hrs by PI staining based flow cytometry analysis (reference value: 42.06 %); assay type: functional
[14] = test system: MDA-MB-231; test: Induction of apoptosis in human MDA-MB-231 cells assessed as viable cells at 1 uM incubated for 72 hrs by annexinV-FITC and PI staining based flow cytometry analysis (reference value: 90.3 %); assay type: functional; settings: read-out: Activity
[15] = test system: MDA-MB-231; test: Induction of cell cycle arrest in human MDA-MB-231 cells assessed as increase in p21 expression at 0.25 to 5 uM incubated for 24 hrs by Western blot analysis; assay type: functional, cell-based; settings: dose 0.25-5 µM
[16] = test system: 4T1; test: Induction of cell cycle arrest in mouse 4T1 cells assessed as G2/M phase accumulation at 1 uM incubated for 24 hrs by PI staining based flow cytometry analysis (reference value: 38.51 %); assay type: functional
[17] = test system: Bel-7402; test: Cytotoxicity against human Bel-7402 cells assessed as reduction in cell viability incubated for 48 hrs by MTT assay; assay type: functional, cell-based; settings: Bel-7402, 48 h
[18] = Toxicity in BALB/c mouse xenografted with mouse 4T1 cells assessed as effect on body weight at 20 mg/kg, ip administered for 22 days and measured on day 22; assay type: organism-based; settings: in vivo, 528 h, time 22 day
[19] = test system: 4T1; test: Potency index, ratio of IC50 of SAHA to IC50 of compound for cytotoxicity against mouse 4T1 cells assessed as reduction in cell viability incubated for 48 hrs by MTT assay; assay type: functional
[20] = biological target: Histone deacetylase 1 (Homo sapiens, UniProt Q13547); test: Inhibition of recombinant human C-terminal GST-tagged full length HDAC-1 expressed in baculovirus infected in Sf9 cells using Boc-Lys (q-Ac)-AMC as substrate incubated for 10 mins followed by substrate addition and measured after 30 mins by fluorescence based assay
[21] = test system: MDA-MB-231; test: Induction of cell cycle arrest in human MDA-MB-231 cells assessed as G2/M phase accumulation at 1 uM incubated for 24 hrs by PI staining based flow cytometry analysis (reference value: 27.08 %); assay type: functional
[22] = test system: MDA-MB-231; test: Induction of apoptosis in human MDA-MB-231 cells assessed as necrotic cells at 5 uM incubated for 72 hrs by annexinV-FITC and PI staining based flow cytometry analysis (reference value: 0.330 %); assay type: functional
[23] = test system: MDA-MB-231; test: Induction of apoptosis in human MDA-MB-231 cells assessed as effect on p53 expression at 0.5 to 10 uM incubated for 48 hrs by Western blot analysis; assay type: functional, cell-based; settings: dose 0.5-10 µM
[24] = test system: MCF7; test: Cytotoxicity against human MCF7 cells assessed as reduction in cell viability incubated for 48 hrs by MTT assay; assay type: functional, cell-based; settings: MCF7, 48 h
[25] = test system: PANC-1; test: Cytotoxicity against human PANC-1 cells assessed as reduction in cell viability incubated for 48 hrs by MTT assay; assay type: functional, cell-based; settings: PANC-1, 48 h
[26] = test system: 4T1; test: Induction of apoptosis in mouse 4T1 cells assessed as viable cells at 5 uM incubated for 72 hrs by annexinV-FITC and PI staining based flow cytometry analysis (reference value: 91.1 %); assay type: functional; settings: read-out: Activity
[27] = test system: BT-549; test: Cytotoxicity against human BT-549 cells assessed as reduction in cell viability incubated for 48 hrs by MTT assay; assay type: functional, cell-based; settings: BT-549, 48 h
[28] = test system: MDA-MB-468; test: Potency index, ratio of IC50 of SAHA to IC50 of compound for cytotoxicity against human MDA-MB-468 cells assessed as reduction in cell viability incubated for 48 hrs by MTT assay; assay type: functional
[29] = test system: T47D; test: Cytotoxicity against human T47D cells assessed as reduction in cell viability incubated for 48 hrs by MTT assay; assay type: functional, cell-based
[30] = test system: MDA-MB-468; test: Cytotoxicity against human MDA-MB-468 cells assessed as reduction in cell viability incubated for 48 hrs by MTT assay; assay type: functional, cell-based; settings: MDA-MB-468, 48 h
[31] = biological target: T1, Histone deacetylase 9; test: as §1, with “cells at 10 uM” for “cells”, “assay relative to control” for “assay”; settings: time 40.0 min
[32] = test system: MDA-MB-231; test: Induction of cell cycle arrest in human MDA-MB-231 cells assessed as G2/M phase accumulation at 2 uM incubated for 24 hrs PI staining based by flow cytometry analysis (reference value: 27.08 %); assay type: functional
[33] = test system: MDA-MB-231; test: Induction of apoptosis in human MDA-MB-231 cells assessed as late apoptotic cells at 1 uM incubated for 72 hrs by annexinV-FITC and PI staining based flow cytometry analysis (reference value: 3.79 %); assay type: functional
[34] = test system: 4T1; test: Induction of apoptosis in mouse 4T1 cells assessed as necrotic cells at 1 uM incubated for 72 hrs by annexinV-FITC and PI staining based flow cytometry analysis (reference value: 5.00 %); assay type: functional

T1 sequence (Q9UKV0 whole entry): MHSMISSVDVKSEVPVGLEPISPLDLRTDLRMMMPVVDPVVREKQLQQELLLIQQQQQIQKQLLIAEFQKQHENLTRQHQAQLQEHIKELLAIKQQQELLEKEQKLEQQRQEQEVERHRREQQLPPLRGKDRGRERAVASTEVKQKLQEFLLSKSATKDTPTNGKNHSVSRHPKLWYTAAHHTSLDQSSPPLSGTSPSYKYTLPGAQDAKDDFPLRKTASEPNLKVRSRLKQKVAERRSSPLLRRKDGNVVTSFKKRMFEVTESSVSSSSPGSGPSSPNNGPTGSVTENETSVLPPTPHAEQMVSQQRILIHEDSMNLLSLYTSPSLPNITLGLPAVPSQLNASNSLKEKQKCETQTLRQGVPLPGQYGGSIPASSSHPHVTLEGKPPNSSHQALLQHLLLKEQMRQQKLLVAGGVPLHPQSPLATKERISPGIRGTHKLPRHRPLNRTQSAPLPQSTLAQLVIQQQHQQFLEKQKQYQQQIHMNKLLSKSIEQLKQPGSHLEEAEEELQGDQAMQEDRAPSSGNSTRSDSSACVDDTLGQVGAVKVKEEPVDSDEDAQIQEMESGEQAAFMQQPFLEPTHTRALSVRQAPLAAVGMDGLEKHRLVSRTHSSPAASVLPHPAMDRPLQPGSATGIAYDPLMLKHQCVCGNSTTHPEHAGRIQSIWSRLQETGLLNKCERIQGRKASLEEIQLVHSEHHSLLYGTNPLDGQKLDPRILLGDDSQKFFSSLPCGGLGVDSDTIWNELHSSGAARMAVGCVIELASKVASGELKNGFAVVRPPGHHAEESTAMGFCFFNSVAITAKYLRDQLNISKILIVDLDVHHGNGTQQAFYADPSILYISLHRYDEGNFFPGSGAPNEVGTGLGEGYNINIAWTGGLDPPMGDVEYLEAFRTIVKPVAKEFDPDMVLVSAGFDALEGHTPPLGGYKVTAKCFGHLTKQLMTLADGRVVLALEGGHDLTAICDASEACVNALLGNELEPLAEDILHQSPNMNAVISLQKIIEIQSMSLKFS
Histone deacetylase 1, sequence (Q13547 whole entry): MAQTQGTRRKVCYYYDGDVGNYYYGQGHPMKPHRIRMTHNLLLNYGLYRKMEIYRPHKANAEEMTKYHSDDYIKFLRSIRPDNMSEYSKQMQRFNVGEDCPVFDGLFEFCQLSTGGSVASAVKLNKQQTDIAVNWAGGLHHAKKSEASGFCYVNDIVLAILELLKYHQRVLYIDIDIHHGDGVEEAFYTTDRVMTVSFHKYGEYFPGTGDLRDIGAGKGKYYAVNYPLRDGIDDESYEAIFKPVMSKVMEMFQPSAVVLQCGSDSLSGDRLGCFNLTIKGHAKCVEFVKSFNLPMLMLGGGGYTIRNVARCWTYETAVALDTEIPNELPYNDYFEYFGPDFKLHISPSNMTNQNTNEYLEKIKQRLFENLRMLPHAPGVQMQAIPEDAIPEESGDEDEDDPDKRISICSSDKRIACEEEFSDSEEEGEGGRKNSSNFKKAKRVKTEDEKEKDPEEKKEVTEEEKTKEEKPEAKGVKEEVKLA

Q: For `CN(C)CCOc1ccc(-c2cc(=O)c3c(O)cc(OCCCCCC(=O)NO)cc3o2)cc1.Cl`, which Activity [1] is on record?
A: Its Activity is 1.8%.

Q: What about the TGI [2] of the same compound?
A: The TGI was “Active”.

Q: What about the Activity [3] of the same compound?
A: Its Activity is 62.91%.

Q: And the Activity [4]?
A: Its Activity is “Dose-dependent effect”.

Q: And the TGI [5]?
A: Its TGI is “Active”.

Q: What about the MRT [6] of the same compound?
A: The MRT was 1.25 h.

Q: What about the IC50 [7] of the same compound?
A: The IC50 was over 10 µM.

Q: And the Activity [8]?
A: The Activity was “Non-Toxic”.

Q: What about the IC50 [9] of the same compound?
A: Its IC50 is 2.05 µM.

Q: What about the viability at 5 µM [10] of the same compound?
A: The viability at 5 µM was 17.2%.

Q: And the IC50 [11]?
A: The IC50 was over 10 µM.

Q: What about the bioavailability [12] of the same compound?
A: The bioavailability was 57.8%.

Q: What about the Activity [13] of the same compound?
A: Its Activity is 49.62%.

Q: And the viability at 1 µM [14]?
A: The viability at 1 µM was 64.8%.

Q: And the Activity [15]?
A: The Activity was “Active”.

Q: And the Activity [16]?
A: The Activity was 19.39%.

Q: What about the IC50 [17] of the same compound?
A: Its IC50 is 3.31 µM.

Q: What about the Activity [18] of the same compound?
A: The Activity was “Non-Toxic”.

Q: What about the “Ratio IC50” value [19] of the same compound?
A: Its value is 2.

Q: What about the IC50 [20] of the same compound?
A: Its IC50 is 0.036 µM.

Q: What about the Activity [21] of the same compound?
A: The Activity was 42.82%.

Q: And the Activity [22]?
A: Its Activity is 0.06%.

Q: And the Activity [23]?
A: The Activity was “inactive”.

Q: What about the IC50 [24] of the same compound?
A: The IC50 was 4.7 µM.

Q: What about the IC50 [25] of the same compound?
A: The IC50 was over 10 µM.

Q: And the viability at 5 µM [26]?
A: Its viability at 5 µM is 22.5%.

Q: What about the IC50 [27] of the same compound?
A: The IC50 was 4.13 µM.

Q: And the “Ratio IC50” value [28]?
A: The value was 2.

Q: What about the IC50 [29] of the same compound?
A: Its IC50 is 1.53 µM.

Q: And the IC50 [30]?
A: Its IC50 is 3.4 µM.

Q: What about the inhibition [31] of the same compound?
A: Its inhibition is 26%.

Q: What about the Activity [32] of the same compound?
A: Its Activity is 27.89%.

Q: And the Activity [33]?
A: The Activity was 12%.

Q: And the Activity [34]?
A: The Activity was 3.6%.
